Test results reported in patent publication US5484772A, “Antithrombotic agents” (Eli Lilly and Company, priority 1994, dated 1996).

Columns and labels:
Assay type in all cases: biochemical
Human plasma [1] = experiment: Human plasma anticoagulation, prothrombin time (PT); conditions: concentration required to double PT, linear extrapolation, Hydrochloride
Method: (§1) Dog plasma and rat plasma are obtained from conscious mixed-breed hounds (either sex, hazelton-LRE, Kalamazoo, Mich., U.S.A.) or from anesthetized male Sprague-Dawley rats (Harlan Sprague-Dawley, Inc., Indianapolis, Ind., U.S.A.) by venipuncture into 3.8 percent citrate. Fibrinogen is prepared from in-date ACD human blood as the fraction I-2 according to previous procedures and specifications. Smith, Blochem. J., 185, 1-11 (1980); and Smith, et al., Biochemistry, 11, 2958-2967 (1972). Human fibrinogen is also purchased as 98 percent pure/plasmin free from American Diagnostica, Greenwich, Conn. Coagulation reagents ACTIN, Thromboplastin, and Human plasma are from Baxter Healthcare Corp., Dade Division, Miami, Fla. Bovine thrombin from Parke-Davis (Ann Arbor, Mich.) is used for coagulation assays in plasma.
(§2) Coagulation assay procedures are as previously described. Smith, et al., Thrombosis Research, 50, 163-174 (1988). […] The prothrombin time (PT) is measured by adding 0.05 ml saline and 0.05 ml Thromboplastin-C reagent to 0.05 ml test plasma. The activated partial thromboplastin time (APTT) is measured by incubation of 0.05 ml test plasma with 0.05 ml Actin reagent for 120 seconds followed by 0.05 ml CaCl2 (0.02M). The thrombin time (TT) is measured by adding 0.05 ml saline and 0.05 ml thrombin (10 NIH units/ml) to 0.05 ml test plasma. […]

t-PA = molecular target: T1, t-PA (Homo sapiens, UniProt P00750); experiment: t-PA amidase inhibition, chromogenic substrate (Kass); conditions: apparent association constant; Hydrochloride
T1 construct: purchased American Diagnostica, Greenwich, Conn

Human factor Xa = molecular target: T2, Human factor Xa (Homo sapiens, UniProt P00742); experiment: Factor Xa amidase inhibition, chromogenic substrate (Kass); conditions: apparent association constant; Hydrochloride
T2 construct: Human factors X, Xa, IXa, XIa, and XIIa are purchased; purchased Enzyme Research Laboratories, South Bend, Ind

Human plasmin = molecular target: T3, Human plasmin (Homo sapiens, UniProt P00747); experiment: Plasmin amidase inhibition, chromogenic substrate (Kass); conditions: apparent association constant; Hydrochloride
T3 construct: Human plasmin is purchased from Boehringer Mannheim; purchased Boehringer Mannheim, Indianapolis, Ind

Bovine trypsin = molecular target: T4, Bovine trypsin (Bos taurus, UniProt P00760); experiment: Trypsin amidase inhibition, chromogenic substrate (Kass); conditions: apparent association constant; Hydrochloride
T4 construct: purchased Worthington Biochemicals, Freehold, N.J
T4 sequence (P00760 24-246): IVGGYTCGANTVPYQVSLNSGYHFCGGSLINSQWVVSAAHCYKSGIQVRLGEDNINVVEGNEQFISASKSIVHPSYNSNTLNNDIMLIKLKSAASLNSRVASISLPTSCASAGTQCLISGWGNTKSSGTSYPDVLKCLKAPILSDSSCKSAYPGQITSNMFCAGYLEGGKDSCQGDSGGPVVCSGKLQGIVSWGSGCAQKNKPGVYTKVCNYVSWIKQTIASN

human thrombin = human thrombin (Homo sapiens, UniProt P00734); experiment: Thrombin amidase inhibition, chromogenic substrate (Kass); conditions: apparent association constant, mean over a range of concentrations; Hydrochloride
Method: The assay is carried out by mixing 50 μl buffer (0.03M Tris, 0.15M NaCl, pH 7.4), 25 μl of human thrombin solution (purified human thrombin, Enzyme Research Laboratories, South Bend, Ind., at 8 NIH units/ml) and 25 μl of test compound in a solvent (in 50% aqueous methanol, v:v). Then 150 μl of an aqueous solution of the chromogenic substrate (at 0.25 mg/ml) are added and the rates of hydrolysis of the substrate are measured by monitoring the reactions at 405 nm for the release of p-nitroaniline. Standard curves are constructed by plotting free thrombin concentration against hydrolysis rate. The hydrolysis rates observed with test compounds are then converted to free thrombin values in the respective assays by use of the standard curves. The bound thrombin (bound to test compound) is calculated by subtracting the amount of free thrombin observed in each assay from the known initial amount of thrombin used in the assay. The amount of free inhibitor in each assay is calculated by subtracting the number of moles of bound thrombin from the number of moles of added inhibitor (test compound).
The Kass value is the hypothetical equilibrium constant for the reaction between thrombin and the test compound (I). [formula] Kass is calculated for a range of concentrations of test compounds and the mean value is reported in units of liter per mole.

Human plasma [2] = experiment: Human plasma anticoagulation, thrombin time (TT); conditions: concentration required to double thrombin time, linear extrapolation, Hydrochloride
Method: as §1, §2

Human plasma [3] = experiment: Human plasma anticoagulation, activated partial thromboplastin time (APTT); conditions: concentration required to double APTT, linear extrapolation, Hydrochloride
Method: as §1, §2

T3 sequence (P00747 581-810 limits assumed): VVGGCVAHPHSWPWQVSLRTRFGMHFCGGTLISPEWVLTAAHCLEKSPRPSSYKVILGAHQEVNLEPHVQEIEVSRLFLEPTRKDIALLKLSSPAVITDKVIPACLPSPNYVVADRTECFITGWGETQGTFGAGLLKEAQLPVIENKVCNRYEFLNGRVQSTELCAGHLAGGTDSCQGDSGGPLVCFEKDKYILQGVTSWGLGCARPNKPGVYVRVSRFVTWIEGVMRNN
T3 sequence (P00747 97-580 limits assumed): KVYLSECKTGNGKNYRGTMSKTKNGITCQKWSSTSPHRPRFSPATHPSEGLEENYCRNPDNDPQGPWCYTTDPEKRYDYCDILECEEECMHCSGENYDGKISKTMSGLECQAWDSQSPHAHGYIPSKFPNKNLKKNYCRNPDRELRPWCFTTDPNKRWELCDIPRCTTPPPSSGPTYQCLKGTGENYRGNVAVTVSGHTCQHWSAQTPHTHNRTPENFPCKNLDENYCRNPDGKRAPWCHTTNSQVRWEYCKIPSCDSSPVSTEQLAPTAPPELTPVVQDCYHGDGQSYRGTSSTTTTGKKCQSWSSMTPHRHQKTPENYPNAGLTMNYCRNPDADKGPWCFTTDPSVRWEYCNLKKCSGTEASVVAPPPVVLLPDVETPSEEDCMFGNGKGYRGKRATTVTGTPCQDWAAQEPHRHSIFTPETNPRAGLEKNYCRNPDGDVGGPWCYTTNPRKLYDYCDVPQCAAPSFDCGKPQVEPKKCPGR
T1 sequence (P00750 36-562): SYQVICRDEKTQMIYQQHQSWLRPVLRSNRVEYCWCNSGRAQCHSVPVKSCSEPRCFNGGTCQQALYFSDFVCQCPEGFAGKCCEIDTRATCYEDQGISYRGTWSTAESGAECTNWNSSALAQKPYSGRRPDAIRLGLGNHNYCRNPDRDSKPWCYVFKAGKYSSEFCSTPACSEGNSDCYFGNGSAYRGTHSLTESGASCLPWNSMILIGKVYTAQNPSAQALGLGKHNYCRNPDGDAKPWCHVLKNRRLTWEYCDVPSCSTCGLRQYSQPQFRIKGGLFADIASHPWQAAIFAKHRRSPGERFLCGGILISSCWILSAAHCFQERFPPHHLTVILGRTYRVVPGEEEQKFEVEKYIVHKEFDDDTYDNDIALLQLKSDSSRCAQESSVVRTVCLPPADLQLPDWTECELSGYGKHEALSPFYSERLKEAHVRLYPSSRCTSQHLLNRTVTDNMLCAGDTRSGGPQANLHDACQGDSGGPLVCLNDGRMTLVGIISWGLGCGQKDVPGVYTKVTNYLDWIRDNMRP
T2 sequence (P00742 235-488 limits assumed): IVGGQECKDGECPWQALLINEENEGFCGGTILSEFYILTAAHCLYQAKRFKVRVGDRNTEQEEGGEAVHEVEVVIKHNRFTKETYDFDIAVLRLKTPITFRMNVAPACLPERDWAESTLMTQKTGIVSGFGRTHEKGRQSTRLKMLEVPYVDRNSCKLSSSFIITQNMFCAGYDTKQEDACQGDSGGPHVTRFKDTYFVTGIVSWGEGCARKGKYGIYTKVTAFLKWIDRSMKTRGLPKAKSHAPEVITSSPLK
T2 sequence (P00742 41-179 limits assumed): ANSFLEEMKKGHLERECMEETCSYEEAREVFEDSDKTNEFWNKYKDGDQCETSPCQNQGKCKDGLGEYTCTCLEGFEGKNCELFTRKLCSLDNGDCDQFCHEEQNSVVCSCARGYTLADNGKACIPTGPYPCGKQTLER

Compound: CCOC(=O)N[C@@H](Cc1ccccc1)C(=O)N1CCC[C@@]1(C)C(=O)N[C@H](C=O)CCCNC(=N)N.Cl [Example 5, N-Ethoxycarbonyl-L-phenylalanyl (αmethyl)-L-prolinyl-L-arginine Aldehyde Hydrochloride]
- 2 × Clotting time PT (Human plasma [1]): 2,200 ng/mL
- Kass t-PA (t-PA): 0.00079 L/mol × 10^6
- Kass Xa (Human factor Xa): 0.044 L/mol × 10^6
- Kass Plasmin (Human plasmin): 0.059 L/mol × 10^6
- Kass Trypsin (Bovine trypsin): 2.4 L/mol × 10^6
- Kass Human Thrombin (human thrombin): 75 L/mol × 10^6
- 2 × Clotting time TT (Human plasma [2]): 48 ng/mL
- 2 × Clotting time APTT (Human plasma [3]): 2,500 ng/mL

Compound: CCOC(=O)NC(CC)(Cc1ccccc1)C(=O)N1CCC[C@H]1C(=O)N[C@H](C=O)CCCNC(=N)N.Cl (stereo partly drawn) [Example 13, N-Ethoxycarbonyl-L-phenylalanyl (αethyl)-L-prolinyl-L-arginine Aldehyde Hydrochloride]
- 2 × Clotting time PT (Human plasma [1]): 3,300 ng/mL
- Kass t-PA (t-PA): 0.002 L/mol × 10^6
- Kass Xa (Human factor Xa): 0.036 L/mol × 10^6
- Kass Plasmin (Human plasmin): 0.12 L/mol × 10^6
- Kass Trypsin (Bovine trypsin): 4.9 L/mol × 10^6
- Kass Human Thrombin (human thrombin): 57 L/mol × 10^6
- 2 × Clotting time TT (Human plasma [2]): 93 ng/mL
